Measurements taken from PubChem BioAssay (NCI).
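Five compound concentrations were applied to cells in 96-well plates for 48 hours; endpoints were derived by simple linear interpolation of the resulting dose-response curve. GI50 is the concentration that inhibits growth by half. TGI is the concentration that stops growth completely.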

Legend:
Assay in all cases: DTP human tumour cell line panel, 48 h
[1] = tested on: NCI-H23 lung
[2] = tested on: A549 NSCLC
[3] = tested on: 786-0 renal
[4] = tested on: A498 renal
[5] = tested on: NCI/ADR-RES ovarian
[6] = tested on: NCI-H522 lung
[7] = tested on: HCT-116 colon
[8] = tested on: SN12C renal
[9] = tested on: LOX IMVI melanoma
[10] = tested on: CAKI-1 renal

| Compound | GI50 [1] [µM] | TGI [1] [µM] | GI50 [2] [µM] | TGI [2] [µM] | GI50 [3] [µM] | TGI [3] [µM] | GI50 [4] [µM] | TGI [4] [µM] | GI50 [5] [µM] | TGI [5] [µM] | GI50 [6] [µM] | TGI [6] [µM] | GI50 [7] [µM] | TGI [7] [µM] | GI50 [8] [µM] | TGI [8] [µM] | GI50 [9] [µM] | TGI [9] [µM] | GI50 [10] [µM] | TGI [10] [µM] |
| --- | --- | --- | --- | --- | --- | --- | --- | --- | --- | --- | --- | --- | --- | --- | --- | --- | --- | --- | --- | --- |
| C=C1C(O)C2C(=C(CC)C13CC3)C(=O)C(C)(C)C2OC (stereo not given) | 55.6 | > 100 | 44.9 | > 100 | > 100 | > 100 | > 100 | > 100 | 92.7 | > 100 | 37.6 | > 100 | 28.3 | > 100 | 74.2 | > 100 | 43.1 | > 100 | 76.5 | > 100 |
| COc1ccc(C/C(C)=C(/c2ccc(OCCN3CCCCC3)cc2)c2ccc(OC(=O)NCc3ccccc3)cc2)cc1 | 0.425 | 0.838 | 0.413 | 0.821 | 0.316 | 0.674 | 0.398 | 0.744 | 0.443 | 0.893 | 0.49 | 0.928 | 0.33 | 0.698 | 0.428 | 0.8 | 0.421 | 0.779 | 0.405 | 0.769 |
| NC(=O)N/N=C1/CCC(O)CC1CC(=O)O (stereo not given) | – | > 100 | – | > 100 | – | > 100 | – | > 100 | – | > 100 | – | > 100 | – | > 100 | – | > 100 | – | > 100 | – | > 100 |
| CC(C)(C)C(=O)OCC1C(=O)OCC1C(=O)N1Cc2cc3ccccc3nc2C1 (stereo not given) | – | 13.6 | – | 30.8 | – | 7.69 | – | 26 | – | 18.9 | – | 2.2 | – | 5.28 | – | 16.8 | – | 15.3 | – | 3.87 |
| O=C1/C(=C/c2ccccc2)CN(C(=O)CCN2CCOCC2)C/C1=C\c1ccccc1 | – | 6.13 | – | 20.2 | – | 3.98 | – | 25.5 | – | 9.46 | – | 4.46 | – | 2.04 | – | 4.55 | – | 2.21 | – | 23 |
| C[C@@H]1[C@H](C)N1CC(O)Cn1ccnc1[N+](=O)[O-] (stereo not given in full) | – | > 100 | – | > 100 | – | > 100 | – | > 100 | – | > 100 | – | > 100 | – | > 100 | – | > 100 | – | > 100 | – | > 100 |
| Cc1ccccc1OCC(O)CN1CCN(c2ccc(Cl)cc2)CC1 (stereo not given) | 15.8 | 34.5 | 30.2 | 84 | 17.4 | 32.6 | 11.9 | 24.6 | 14.8 | 29.5 | 14.1 | 29.2 | 14.6 | 29.3 | 16 | 30.8 | 15.3 | 31.3 | 12.5 | 26.6 |
